The text below walks through data of US10202360B2 (CELGENE QUANTICEL RESEARCH, INC., priority 2016, dated 2019).

In this experiment the target is CREBBP (Homo sapiens (Human), UniProt Q92793). Briefly: In vitro enzyme inhibition assay - CREBBP inhibition (AlphaScreen, biotinylated H4-tetraacetyl peptide). Format: binding. Conditions: Table 28; AlphaScreen, H4-tetraacetyl peptide. On the procedure: Determination of the IC50 for the CREBBP inhibitors disclosed herein was performed as follows: CREBBP was cloned and expressed in E. Coli as His-tag protein and purified by Nickel affinity and gel-filtration chromatography. […] CREBBP binding and inhibition was assessed by monitoring the interaction of biotinylated H4-tetraacetyl peptide (AnaSpec, H4K5/8/12/16(Ac), biotin-labeled) with the target using the AlphaScreen technology (Perkin Elmer). In a 384-well ProxiPlate CREBBP (50 nM final) was combined with peptide (20 nM final) in 50 mM HEPES (pH 7.3), 10 mM NaCl, 0.25 mM TCEP, 0.1% (w/v) BSA, and 0.005% (w/v) Brij-35 either in the presence of DMSO (final 0.4% DMSO) or compound dilution series in DMSO. After 20-minute incubation at room temperature, Alpha streptavidin donor beads and Nickel Chelate acceptor beads were added to a final concentration of 5 μg/mL. After two hours of equilibration, plates were read on an Envision instrument and the IC50 was calculated using a four parameter non-linear curve fit.
Chain of CREBBP (Q92793 1081-1197): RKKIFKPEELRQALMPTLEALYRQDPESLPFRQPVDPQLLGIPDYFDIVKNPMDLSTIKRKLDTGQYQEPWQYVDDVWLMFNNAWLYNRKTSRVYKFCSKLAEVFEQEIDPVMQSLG
The ability of the compounds disclosed herein to inhibit CBP activity was quantified and the respective IC50 value was determined.
In general terms: In Alpha technology, singlet oxygen from a donor bead excites a nearby acceptor bead.

Where only a bound is given, the exact number is not on record here.

In general, IC50 refers to the midpoint of a concentration-inhibition curve. A low value points to higher potency. Compound `Cc1cc(-c2cc(NS(=O)(=O)C(C)C)nc(Oc3cc(Cl)ccc3Cl)n2)cn(C)c1=O` [Example 1, Propane-2-sulfonic acid [2-(2,5-dichloro-phenoxy)-6-(1,5-dimethyl-6-oxo-1,6-dihydro-pyridin-3-yl)-pyrimidin-4-yl]-amide] returned an IC50 of less than 500 nM.
As for `Cc1ccc(C)c(Oc2nc(NS(=O)(=O)C(C)C)cc(-c3cc(C)c(=O)n(C)c3)n2)c1` [Example 2, Propane-2-sulfonic acid [6-(1,5-dimethyl-6-oxo-1,6-dihydro-pyridin-3-yl)-2-(2,5-dimethyl-phenoxy)-pyrimidin-4-yl]-amide], the figure is less than 500 nM.
`COc1ccc(C)cc1Oc1nc(NS(=O)(=O)C(C)C)cc(-c2cc(C)c(=O)n(C)c2)n1` [Example 4, Propane-2-sulfonic acid [6-(1,5-dimethyl-6-oxo-1,6-dihydro-pyridin-3-yl)-2-(2-methoxy-5-methyl-phenoxy)-pyrimidin-4-yl]-amide]: the IC50 was less than 500 nM.
Under `Cc1ccc(Cl)c(Oc2nc(NS(=O)(=O)C(C)C)cc(-c3cc(C)c(=O)n(C)c3)n2)c1` [Example 5, Propane-2-sulfonic acid [2-(2-chloro-5-methyl-phenoxy)-6-(1,5-dimethyl-6-oxo-1,6-dihydro-pyridin-3-yl)-pyrimidin-4-yl]-amide] stands less than 500 nM; under `Cc1ccc(Cl)cc1Oc1nc(NS(=O)(=O)C(C)C)cc(-c2cc(C)c(=O)n(C)c2)n1` [Example 6, Propane-2-sulfonic acid [2-(5-chloro-2-methyl-phenoxy)-6-(1,5-dimethyl-6-oxo-1,6-dihydro-pyridin-3-yl)-pyrimidin-4-yl]-amide], less than 500 nM.
As for `Cc1ccc(C#N)cc1Oc1nc(NS(=O)(=O)C(C)C)cc(-c2cc(C)c(=O)n(C)c2)n1` [Example 7, Propane-2-sulfonic acid [2-(5-cyano-2-methyl-phenoxy)-6-(1,5-dimethyl-6-oxo-1,6-dihydro-pyridin-3-yl)-pyrimidin-4-yl]-amide], the figure is less than 500 nM.
Under `COc1cccc(C)c1Oc1nc(NS(=O)(=O)C(C)C)cc(-c2cc(C)c(=O)n(C)c2)n1` [Example 8, Propane-2-sulfonic acid [6-(1,5-dimethyl-6-oxo-1,6-dihydro-pyridin-3-yl)-2-(2-methoxy-6-methyl-phenoxy)-pyrimidin-4-yl]-amide] stands less than 500 nM; under `COc1ccc(C#N)cc1Oc1nc(NS(=O)(=O)C(C)C)cc(-c2cc(C)c(=O)n(C)c2)n1` [Example 9, Propane-2-sulfonic acid [2-(5-cyano-2-methoxy-phenoxy)-6-(1,5-dimethyl-6-oxo-1,6-dihydro-pyridin-3-yl)-pyrimidin-4-yl]-amide], less than 500 nM.
The compound `CCCCS(=O)(=O)Nc1cc(-c2cc(C)c(=O)n(C)c2)nc(Oc2cc(C#N)ccc2OC)n1` [Example 10, Butane-1-sulfonic acid [2-(5-cyano-2-methoxy-phenoxy)-6-(1,5-dimethyl-6-oxo-1,6-dihydro-pyridin-3-yl)-pyrimidin-4-yl]-amide] displayed an IC50 of less than 500 nM.
Turning to `CCCCS(=O)(=O)Nc1cc(-c2cc(C)c(=O)n(C)c2)nc(Oc2c(C#N)cccc2OC)n1` [Example 12, Butane-1-sulfonic acid [2-(2-cyano-6-methoxy-phenoxy)-6-(1,5-dimethyl-6-oxo-1,6-dihydro-pyridin-3-yl)-pyrimidin-4-yl]-amide], the IC50 is less than 500 nM.
The compound `CCCCS(=O)(=O)Nc1cc(-c2cc(C)c(=O)n(C)c2)nc(Oc2cc(Cl)ccc2Cl)n1` [Example 13, Butane-1-sulfonic acid [2-(2,5-dichloro-phenoxy)-6-(1,5-dimethyl-6-oxo-1,6-dihydro-pyridin-3-yl)-pyrimidin-4-yl]-amide] displayed an IC50 of less than 500 nM.
As to `CCCCS(=O)(=O)Nc1cc(-c2cc(C)c(=O)n(C)c2)nc(Oc2cc(C)ccc2Cl)n1` [Example 15, Butane-1-sulfonic acid [2-(2-chloro-5-methyl-phenoxy)-6-(1,5-dimethyl-6-oxo-1,6-dihydro-pyridin-3-yl)-pyrimidin-4-yl]-amide], the IC50 was less than 500 nM.
